The results in this text go back to patent publication US8217072B2, “Salinosporamides and methods for use thereof” (The Regents of the University of California, priority 2003, dated 2012).

For data set [1], the system named is Candida albicans(amphoterocin B resistant). As to the kind of experiment: Antifungal screening, Candida albicans (amphoterocin B resistant). Format: cell-based. Also noted: key: NSA = no significant activity.
Data set [2] deals with Staphylococcus aureus (methecillin resistant). The data set can be described thus: Antibacterial screening, Staphylococcus aureus. Format: cell-based. Also noted: key to IC50: NSA = no significant activity.
In data set [3] the test system is Enterococcus faecium (vanomycin resistant). As to the kind of experiment: Antibacterial screening, Enterococcus faecium. Format: cell-based. Also noted: key to IC50: NSA = no significant activity.
Data set [4] in a line: Solubility in organic solvents. Conditions: CHCl3, methanol, and other polar solvents like DMSO, acetone, acetonitrile, benzene, pyridine, N,N-dimethylformamide.

Consider `C[C@@]12OC(=O)[C@]1([C@@H](O)[C@@H]1C=CCCC1)NC(=O)[C@@H]2CCCl` [Salinosporamide A], for which the IC50 entry in data set [1], in data set [2] (methecillin resistant) and in data set [3] (vanomycin resistant) was “NSA*” in each case. Also, the antibacterial activity result in data set [2] and in data set [3] was “no antibacterial activity” throughout. Further, the solubility entry in data set [4] is “soluble”.
